Source: patent publication US20240246913A1, “2-CARBOXYL-INDOLE INHIBITORS OF METALLO-BETA-LACTAMASES” (Oxford University Innovation Limited, priority 2021, published 2024)

What was measured:
[1] = molecular target: VIM-2 (Escherichia coli, UniProt Q5U7L7); assay: MBL inhibition, FC-5 fluorescence assay, VIM-2; format: biochemical; details: FC-5 cephalosporin substrate, ranges of obtained pIC50, read-out: pIC50 VIM-2 (converted)
How it was run: (§1)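 Turnover of the fluorogenic cephalosporin FC-5 by each MBL, followed as initial rate of fluorescence increase (ex 380/em 460 nm). Dose-response curves fitted with a variable-slope normalized-response model; 4 intra-plate replicates per concentration.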

[2] = molecular target: NDM-1 (Klebsiella pneumoniae, UniProt C7C422); assay: MBL inhibition, FC-5 fluorescence assay, NDM-1; format: biochemical; details: FC-5 cephalosporin substrate, fluorescence; ranges of obtained pIC50; read-out: pIC50 NDM-1 (converted)
How it was run: as §1

[3] = molecular target: IMP-1 (Serratia marcescens, UniProt P52699); assay: MBL inhibition, FC-5 fluorescence assay, IMP-1; format: biochemical; details: FC-5 cephalosporin substrate, fluorescence; ranges of obtained pIC50; read-out: pIC50 IMP-1 (converted)
How it was run: as §1

[4] = molecular target: VIM-1 (Pseudomonas aeruginosa, UniProt A0A0F7KYQ8); assay: MBL inhibition, FC-5 fluorescence assay, VIM-1; format: biochemical; details: FC-5 cephalosporin substrate, ranges of obtained pIC50, read-out: pIC50 VIM-1 (converted)
How it was run: as §1

[5] = Plasma protein binding, equilibrium dialysis, human plasma; format: in vitro ADME; details: pH 7.4, equilibrium dialysis (RED) 4 hours at 37° C., read-out: Plasma protein binding, fu, Human
Method: (§2) The fraction of unbound compound (fu) in plasma from human or other animal species was determined by equilibrium dialysis at 37° C. for 4 hours using the Rapid Equilibrium Dialysis (RED) device (ThermoFisher Scientific). The test compound at a concentration of 10 μM was added to plasma and dialyzed against isotonic phosphate buffer (67 mM, pH 7.4) over 4 hours at 37° C. After dialysis, compound concentrations in buffer and plasma were quantified by LC-MS/MS. In parallel the stability of the compound in plasma was determined by incubating drug-spiked plasma (10 μM) at 37° C. for 4 hours, meanwhile the control plasma sample was kept in the freezer. The concentration of the compound in both samples was quantified by LC-MS/MS (Waters Corp, Milford, MA, USA).

[6] = Plasma protein binding, equilibrium dialysis, mouse plasma; format: in vitro ADME; details: pH 7.4, equilibrium dialysis (RED) 4 hours at 37° C., read-out: Plasma protein binding, fu, Mouse
Method: as §2

[7] = tested on: Acinetobacter baumannii NDM-1; assay: Antibiotic susceptibility testing (MIC), AB NDM-1; format: cell-based; details: agar or broth dilution (CLSI/EUCAST)
Method: (§3) Antibiotic susceptibility testing was performed using the agar or broth dilution method, in line with the Clinical and Laboratory Standards Institute (CLSI) and European Committee on Antimicrobial Susceptibility Testing (EUCAST) requirements.

[8] = tested on: Escherichia coli NDM-7; assay: Antibiotic susceptibility testing (MIC), EC NDM-7; format: cell-based; details: agar or broth dilution (CLSI/EUCAST)
Method: as §3

[9] = tested on: Escherichia coli NDM-1; assay: Antibiotic susceptibility testing (MIC), EC NDM-1; format: cell-based; details: agar or broth dilution (CLSI/EUCAST)
Method: as §3

NDM-1, sequence (C7C422 29-270, looked up, species assumed): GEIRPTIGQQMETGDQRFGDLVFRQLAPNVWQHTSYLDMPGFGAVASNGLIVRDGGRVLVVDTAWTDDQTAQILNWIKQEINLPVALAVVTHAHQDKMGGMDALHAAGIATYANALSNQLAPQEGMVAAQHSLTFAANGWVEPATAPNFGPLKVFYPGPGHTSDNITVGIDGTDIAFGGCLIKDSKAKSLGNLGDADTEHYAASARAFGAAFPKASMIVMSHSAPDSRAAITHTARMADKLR
IMP-1, sequence (P52699 19-246, looked up, species assumed): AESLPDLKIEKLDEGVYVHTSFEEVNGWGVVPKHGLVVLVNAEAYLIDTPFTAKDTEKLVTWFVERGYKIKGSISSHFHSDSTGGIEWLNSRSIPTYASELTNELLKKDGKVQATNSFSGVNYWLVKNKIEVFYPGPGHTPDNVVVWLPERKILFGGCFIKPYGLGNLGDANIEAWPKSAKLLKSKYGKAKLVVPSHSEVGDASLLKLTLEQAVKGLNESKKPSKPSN

## CC(NS(C)(=O)=O)c1cccc2c(-c3cc(Cl)cc(Cl)c3)c(C(=O)O)[nH]c12 (stereo not shown) [IC-2, 3-(3,5-Dichlorophenyl)-7-(1-(methylsulfonamido)ethyl)-1H-indole-2-carboxylic acid]
[1]
  IC50: > 10 nM
[2]
  IC50: > 10 nM
[3]
  IC50: > 10 nM
[4]
  IC50: > 10 nM
[5]
  fraction unbound at 4 h, 10 μM: < 0.005
[6]
  fraction unbound at 4 h, 10 μM: < 0.005

## CC(c1cccc2c(-c3ccc(CS(C)(=O)=O)c(F)c3)c(C(=O)O)[nH]c12)N1C(=O)CN(CCCN)C1=O (stereo not shown) [IC-13, 7-[1-[3-(3-Aminopropyl)-2,5-dioxo-imidazolidin-1-yl]ethyl]-3-[3-fluoro-4-(methylsulfonylmethyl)phenyl]-1H-indole-2-carboxylic acid]
[1]
  IC50: > 10 nM
[2]
  IC50: < 0.1 nM
[3]
  IC50: > 10 nM
[4]
  IC50: 1 to 10 nM
[5]
  fraction unbound at 4 h, 10 μM: 0.05 to 0.25
[6]
  fraction unbound at 4 h, 10 μM: 0.005 to 0.05

## C[C@@H](c1cccc2c(-c3ccc(=O)[nH]c3)c(C(=O)O)[nH]c12)N1C[C@]2(C[C@@H](CN)C2)OC1=O [IC-15, 7-((S)-1-((2S,4r)-2-(aminomethyl)-6-oxo-5-oxa-7-azaspiro[3.4]octan-7-yl)ethyl)-3-(6-oxo-1,6-dihydropyridin-3-yl)-1H-indole-2-carboxylic acid]
[7]
  MIC values AB NDM-1: C (C = MIC values > 8)
[8]
  MIC values EC NDM-7: A (A = MIC values ≤ 1)
[9]
  MIC values EC NDM-1: B (B MIC values 2 ÷ 8)
[5]
  fraction unbound at 4 h, 10 μM: 0.05 to 0.25
[6]
  fraction unbound at 4 h, 10 μM: 0.005 to 0.05

## C[C@@H](c1cccc2c(-c3ccc(CS(C)(=N)=O)c(F)c3)c(C(=O)O)[nH]c12)N1C[C@]2(C[C@@H](CN)C2)OC1=O (stereo partly drawn) [IC-19, 7-((1S)-1-(2-(aminomethyl)-6-oxo-5-oxa-7-azaspiro[3.4]octan-7-yl)ethyl)-3-(3-fluoro-4-((S-methylsulfonimidoyl)methyl)phenyl)-1H-indole-2-carboxylic acid]
[1]
  IC50: 0.1 to 1 nM
[2]
  IC50: < 0.1 nM
[3]
  IC50: > 10 nM
[4]
  IC50: 0.1 to 1 nM
[7]
  MIC values AB NDM-1: B (B MIC values 2 ÷ 8)
[8]
  MIC values EC NDM-7: A (A = MIC values ≤ 1)
[9]
  MIC values EC NDM-1: B (B MIC values 2 ÷ 8)
[5]
  fraction unbound at 4 h, 10 μM: > 0.25
[6]
  fraction unbound at 4 h, 10 μM: 0.05 to 0.25

## C[C@@H](c1cccc2c(-c3c(F)cc(NS(C)(=O)=O)cc3F)c(C(=O)O)[nH]c12)N1C[C@]2(C[C@@H](CN)C2)OC1=O [IC-21, 7-((S)-1-((2S,4r)-2-(aminomethyl)-6-oxo-5-oxa-7-azaspiro[3.4]octan-7-yl)ethyl)-3-(2,6-difluoro-4-(methylsulfonamido)phenyl)-1H-indole-2-carboxylic acid]
[1]
  IC50: 1 to 10 nM
[2]
  IC50: 1 to 10 nM
[3]
  IC50: > 10 nM
[4]
  IC50: > 10 nM
[7]
  MIC values AB NDM-1: C (C = MIC values > 8)
[8]
  MIC values EC NDM-7: B (B MIC values 2 ÷ 8)
[9]
  MIC values EC NDM-1: C (C = MIC values > 8)
[5]
  fraction unbound at 4 h, 10 μM: 0.05 to 0.25
[6]
  fraction unbound at 4 h, 10 μM: 0.005 to 0.05

## C[C@@H](c1cccc2c(-c3ccc4c(c3)CNC4=O)c(C(=O)O)[nH]c12)N1C[C@]2(C[C@@H](CN)C2)OC1=O [IC-22, 7-((S)-1-((2R,4s)-2-(aminomethyl)-6-oxo-5-oxa-7-azaspiro[3.4]octan-7-yl)ethyl)-3-(1-oxoisoindolin-5-yl)-1H-indole-2-carboxylic acid]
[1]
  IC50: < 0.1 nM
[2]
  IC50: 0.1 to 1 nM
[3]
  IC50: > 10 nM
[4]
  IC50: 1 to 10 nM
[7]
  MIC values AB NDM-1: B (B MIC values 2 ÷ 8)
[8]
  MIC values EC NDM-7: A (A = MIC values ≤ 1)
[9]
  MIC values EC NDM-1: A (A = MIC values ≤ 1)
[5]
  fraction unbound at 4 h, 10 μM: 0.05 to 0.25
[6]
  fraction unbound at 4 h, 10 μM: 0.005 to 0.05

## C[C@@H](c1cccc2c(-c3ccc(NS(=O)(=O)C4COC4)c(F)c3)c(C(=O)O)[nH]c12)N1C[C@]2(C[C@@H](CN)C2)OC1=O [IC-24, 7-((S)-1-((2S,4r)-2-(aminomethyl)-6-oxo-5-oxa-7-azaspiro[3.4]octan-7-yl)ethyl)-3-(3-fluoro-4-(oxetane-3-sulfonamido)phenyl)-1H-indole-2-carboxylic acid]
[1]
  IC50: 0.1 to 1 nM
[2]
  IC50: < 0.1 nM
[3]
  IC50: > 10 nM
[4]
  IC50: 1 to 10 nM
[7]
  MIC values AB NDM-1: B (B MIC values 2 ÷ 8)
[8]
  MIC values EC NDM-7: A (A = MIC values ≤ 1)
[9]
  MIC values EC NDM-1: A (A = MIC values ≤ 1)
[5]
  fraction unbound at 4 h, 10 μM: 0.05 to 0.25
[6]
  fraction unbound at 4 h, 10 μM: 0.05 to 0.25

## CNc1ccc(-c2c(C(=O)O)[nH]c3c([C@H](C)N4C[C@]5(C[C@@H](CN)C5)OC4=O)cccc23)cn1 [IC-36, 3-[6-(methylamino)pyridin-3-yl]-7-[(1S)-1-[(2r,4r)-2-(aminomethyl)-6-oxo-5-oxa-7-azaspiro[3.4]octan-7-yl]ethyl]-1H-indole-2-carboxylic acid]
[1]
  IC50: > 10 nM
[2]
  IC50: > 10 nM
[3]
  IC50: > 10 nM
[4]
  IC50: > 10 nM
[7]
  MIC values AB NDM-1: B (B MIC values 2 ÷ 8)
[8]
  MIC values EC NDM-7: A (A = MIC values ≤ 1)
[9]
  MIC values EC NDM-1: A (A = MIC values ≤ 1)
[5]
  fraction unbound at 4 h, 10 μM: 0.05 to 0.25

## C[C@@H](c1cccc2c(-c3ccc(N)nc3)c(C(=O)O)[nH]c12)N1C[C@]2(C[C@@H](CN)C2)OC1=O [IC-37, 3-(6-aminopyridin-3-yl)-7-[(1S)-1-[(2r,4r)-2-(aminomethyl)-6-oxo-5-oxa-7-azaspiro[3.4]octan-7-yl]ethyl]-1H-indole-2-carboxylic acid]
[1]
  IC50: 1 to 10 nM
[2]
  IC50: 1 to 10 nM
[3]
  IC50: > 10 nM
[4]
  IC50: > 10 nM
[7]
  MIC values AB NDM-1: B (B MIC values 2 ÷ 8)
[8]
  MIC values EC NDM-7: A (A = MIC values ≤ 1)
[9]
  MIC values EC NDM-1: A (A = MIC values ≤ 1)
[5]
  fraction unbound at 4 h, 10 μM: 0.05 to 0.25

## C[C@@H](c1cccc2c(-c3ccncc3)c(C(=O)O)[nH]c12)N1C[C@]2(C[C@@H](CN)C2)OC1=O [IC-38, 3-(pyridin-4-yl)-7-[(1S)-1-[(2r,4r)-2-(aminomethyl)-6-oxo-5-oxa-7-azaspiro[3.4]octan-7-yl]ethyl]-1H-indole-2-carboxylic acid]
[1]
  IC50: 0.1 to 1 nM
[2]
  IC50: 0.1 to 1 nM
[3]
  IC50: > 10 nM
[4]
  IC50: 1 to 10 nM
[7]
  MIC values AB NDM-1: B (B MIC values 2 ÷ 8)
[8]
  MIC values EC NDM-7: A (A = MIC values ≤ 1)
[9]
  MIC values EC NDM-1: A (A = MIC values ≤ 1)
[5]
  fraction unbound at 4 h, 10 μM: 0.005 to 0.05

## C[C@@H](c1cccc2c(-c3cccnc3)c(C(=O)O)[nH]c12)N1C[C@]2(C[C@@H](CN)C2)OC1=O [IC-39, 3-(pyridin-3-yl)-7-[(1S)-1-[(2r,4r)-2-(aminomethyl)-6-oxo-5-oxa-7-azaspiro[3.4]octan-7-yl]ethyl]-1H-indole-2-carboxylic acid]
[1]
  IC50: 1 to 10 nM
[2]
  IC50: 0.1 to 1 nM
[3]
  IC50: > 10 nM
[4]
  IC50: 0.1 to 1 nM
[7]
  MIC values AB NDM-1: B (B MIC values 2 ÷ 8)
[8]
  MIC values EC NDM-7: A (A = MIC values ≤ 1)
[9]
  MIC values EC NDM-1: A (A = MIC values ≤ 1)
[5]
  fraction unbound at 4 h, 10 μM: 0.005 to 0.05

## CC(OCC1CC[N+](C)(C)CC1)c1cccc2c(-c3ccc(CS(C)(=O)=O)c(F)c3)c(C(=O)[O-])[nH]c12 (stereo not shown) [IC-90, 7-(1-((1,1-Dimethylpiperidin-1-ium-4-yl)methoxy)ethyl)-3-(3-fluoro-4-((methylsulfonyl)methyl)phenyl)-1H-indole-2-carboxylate]
[1]
  IC50: 1 to 10 nM
[2]
  IC50: 1 to 10 nM
[3]
  IC50: > 10 nM
[4]
  IC50: 1 to 10 nM
[5]
  fraction unbound at 4 h, 10 μM: > 0.25
[6]
  fraction unbound at 4 h, 10 μM: 0.05 to 0.25
